In brackets after ≈: the same amount, converted by molar mass.
Legend:
Type in all cases: functional
[1] = tested on: Penicillium; test: Antimicrobial activity against Penicillium wild strain assessed as diameter of growth inhibition zone at 250 ug/ml after 48-96 hr by agar cup diffusion method; conditions: read-out: DIZ
[2] = tested on: Penicillium; test: Antimicrobial activity against Penicillium wild strain assessed as diameter of growth inhibition zone at 100 ug/ml after 48-96 hr by agar cup diffusion method; conditions: read-out: DIZ
[3] = tested on: Trichophyton rubrum; test: Antimicrobial activity against Trichophyton rubrum MTCC 296 assessed as diameter of growth inhibition zone at 100 ug/ml after 48-96 hr by agar cup diffusion method; conditions: read-out: DIZ
[4] = tested on: Aspergillus clavatus; test: Antimicrobial activity against Aspergillus clavatus MTCC 1323 assessed as diameter of growth inhibition zone at 100 ug/ml after 48-96 hr by agar cup diffusion method; conditions: read-out: DIZ
[5] = tested on: Candida albicans; test: Antimicrobial activity against Candida albicans MTCC 227 assessed as diameter of growth inhibition zone at 100 ug/ml after 48-96 hr by agar cup diffusion method; conditions: read-out: DIZ
[6] = tested on: Penicillium; test: Antimicrobial activity against Penicillium wild strain assessed as diameter of growth inhibition zone at 50 ug/ml after 48-96 hr by agar cup diffusion method; conditions: read-out: DIZ
[7] = tested on: Trichophyton rubrum; test: Antimicrobial activity against Trichophyton rubrum MTCC 296 assessed as diameter of growth inhibition zone at 50 ug/ml after 48-96 hr by agar cup diffusion method; conditions: read-out: DIZ
[8] = tested on: Aspergillus clavatus; test: Antimicrobial activity against Aspergillus clavatus MTCC 1323 assessed as diameter of growth inhibition zone at 50 ug/ml after 48-96 hr by agar cup diffusion method; conditions: read-out: DIZ
[9] = tested on: Candida albicans; test: Antimicrobial activity against Candida albicans MTCC 227 assessed as diameter of growth inhibition zone at 50 ug/ml after 48-96 hr by agar cup diffusion method; conditions: read-out: DIZ
[10] = tested on: Penicillium; test: Antimicrobial activity against Penicillium wild strain assessed as diameter of growth inhibition zone at 25 ug/ml after 48-96 hr by agar cup diffusion method; conditions: read-out: DIZ
[11] = tested on: Trichophyton rubrum; test: Antimicrobial activity against Trichophyton rubrum MTCC 296 assessed as diameter of growth inhibition zone at 25 ug/ml after 48-96 hr by agar cup diffusion method; conditions: read-out: DIZ
[12] = tested on: Aspergillus clavatus; test: Antimicrobial activity against Aspergillus clavatus MTCC 1323 assessed as diameter of growth inhibition zone at 25 ug/ml after 48-96 hr by agar cup diffusion method; conditions: read-out: DIZ
[13] = tested on: Candida albicans; test: Antimicrobial activity against Candida albicans MTCC 227 assessed as diameter of growth inhibition zone at 25 ug/ml after 48-96 hr by agar cup diffusion method; conditions: read-out: DIZ
[14] = tested on: Penicillium; test: Antimicrobial activity against Penicillium wild strain by agar cup diffusion method
[15] = tested on: Aspergillus clavatus; test: Antimicrobial activity against Aspergillus clavatus MTCC 1323 by agar cup diffusion method
[16] = tested on: Pseudomonas aeruginosa; test: Antimicrobial activity against Pseudomonas aeruginosa MTCC 1688 assessed as diameter of growth inhibition zone at 25 ug/ml after 18-24 hr by agar cup diffusion method; conditions: read-out: DIZ
[17] = tested on: Escherichia coli; test: Antimicrobial activity against Escherichia coli MTCC 443 assessed as diameter of growth inhibition zone at 25 ug/ml after 18-24 hr by agar cup diffusion method; conditions: read-out: DIZ
[18] = tested on: Staphylococcus aureus; test: Antimicrobial activity against Staphylococcus aureus MTCC 96 assessed as diameter of growth inhibition zone at 25 ug/ml after 18-24 hr by agar cup diffusion method; conditions: read-out: DIZ
[19] = tested on: Streptococcus pyogenes; test: Antimicrobial activity against Streptococcus pyogenes MTCC 442 assessed as diameter of growth inhibition zone at 25 ug/ml after 18-24 hr by agar cup diffusion method; conditions: read-out: DIZ
[20] = tested on: Klebsiella pneumoniae; test: Antimicrobial activity against Klebsiella pneumoniae MTCC 109 by agar cup diffusion method
[21] = tested on: Escherichia coli; test: Antimicrobial activity against Escherichia coli MTCC 443 by agar cup diffusion method
[22] = tested on: Pseudomonas aeruginosa; test: Antimicrobial activity against Pseudomonas aeruginosa MTCC 1688 by agar cup diffusion method
[23] = tested on: Staphylococcus aureus; test: Antimicrobial activity against Staphylococcus aureus MTCC 96 by agar cup diffusion method
[24] = tested on: Streptococcus pyogenes; test: Antimicrobial activity against Streptococcus pyogenes MTCC 442 by agar cup diffusion method
[25] = tested on: Trichophyton rubrum; test: Antimicrobial activity against Trichophyton rubrum MTCC 296 by agar cup diffusion method
[26] = tested on: Candida albicans; test: Antimicrobial activity against Candida albicans MTCC 227 by agar cup diffusion method
[27] = tested on: Klebsiella pneumoniae; test: Antimicrobial activity against Klebsiella pneumoniae MTCC 109 assessed as diameter of growth inhibition zone at 250 ug/ml after 18-24 hr by agar cup diffusion method; conditions: read-out: DIZ
[28] = tested on: Pseudomonas aeruginosa; test: Antimicrobial activity against Pseudomonas aeruginosa MTCC 1688 assessed as diameter of growth inhibition zone at 250 ug/ml after 18-24 hr by agar cup diffusion method; conditions: read-out: DIZ
[29] = tested on: Escherichia coli; test: Antimicrobial activity against Escherichia coli MTCC 443 assessed as diameter of growth inhibition zone at 250 ug/ml after 18-24 hr by agar cup diffusion method; conditions: read-out: DIZ
[30] = tested on: Staphylococcus aureus; test: Antimicrobial activity against Staphylococcus aureus MTCC 96 assessed as diameter of growth inhibition zone at 250 ug/ml after 18-24 hr by agar cup diffusion method; conditions: read-out: DIZ
[31] = tested on: Streptococcus pyogenes; test: Antimicrobial activity against Streptococcus pyogenes MTCC 442 assessed as diameter of growth inhibition zone at 250 ug/ml after 18-24 hr by agar cup diffusion method; conditions: read-out: DIZ
[32] = tested on: Klebsiella pneumoniae; test: Antimicrobial activity against Klebsiella pneumoniae MTCC 109 assessed as diameter of growth inhibition zone at 100 ug/ml after 18-24 hr by agar cup diffusion method; conditions: read-out: DIZ
[33] = tested on: Pseudomonas aeruginosa; test: Antimicrobial activity against Pseudomonas aeruginosa MTCC 1688 assessed as diameter of growth inhibition zone at 100 ug/ml after 18-24 hr by agar cup diffusion method; conditions: read-out: DIZ
[34] = tested on: Escherichia coli; test: Antimicrobial activity against Escherichia coli MTCC 443 assessed as diameter of growth inhibition zone at 100 ug/ml after 18-24 hr by agar cup diffusion method; conditions: read-out: DIZ
[35] = tested on: Staphylococcus aureus; test: Antimicrobial activity against Staphylococcus aureus MTCC 96 assessed as diameter of growth inhibition zone at 100 ug/ml after 18-24 hr by agar cup diffusion method; conditions: read-out: DIZ
[36] = tested on: Streptococcus pyogenes; test: Antimicrobial activity against Streptococcus pyogenes MTCC 442 assessed as diameter of growth inhibition zone at 100 ug/ml after 18-24 hr by agar cup diffusion method; conditions: read-out: DIZ
[37] = tested on: Klebsiella pneumoniae; test: Antimicrobial activity against Klebsiella pneumoniae MTCC 109 assessed as diameter of growth inhibition zone at 50 ug/ml after 18-24 hr by agar cup diffusion method; conditions: read-out: DIZ
[38] = tested on: Pseudomonas aeruginosa; test: Antimicrobial activity against Pseudomonas aeruginosa MTCC 1688 assessed as diameter of growth inhibition zone at 50 ug/ml after 18-24 hr by agar cup diffusion method; conditions: read-out: DIZ
[39] = tested on: Escherichia coli; test: Antimicrobial activity against Escherichia coli MTCC 443 assessed as diameter of growth inhibition zone at 50 ug/ml after 18-24 hr by agar cup diffusion method; conditions: read-out: DIZ
[40] = tested on: Staphylococcus aureus; test: Antimicrobial activity against Staphylococcus aureus MTCC 96 assessed as diameter of growth inhibition zone at 50 ug/ml after 18-24 hr by agar cup diffusion method; conditions: read-out: DIZ
[41] = tested on: Streptococcus pyogenes; test: Antimicrobial activity against Streptococcus pyogenes MTCC 442 assessed as diameter of growth inhibition zone at 50 ug/ml after 18-24 hr by agar cup diffusion method; conditions: read-out: DIZ
[42] = tested on: Klebsiella pneumoniae; test: Antimicrobial activity against Klebsiella pneumoniae MTCC 109 assessed as diameter of growth inhibition zone at 25 ug/ml after 18-24 hr by agar cup diffusion method; conditions: read-out: DIZ
[43] = tested on: Trichophyton rubrum; test: Antimicrobial activity against Trichophyton rubrum MTCC 296 assessed as diameter of growth inhibition zone at 250 ug/ml after 48-96 hr by agar cup diffusion method; conditions: read-out: DIZ
[44] = tested on: Aspergillus clavatus; test: Antimicrobial activity against Aspergillus clavatus MTCC 1323 assessed as diameter of growth inhibition zone at 250 ug/ml after 48-96 hr by agar cup diffusion method; conditions: read-out: DIZ
[45] = tested on: Candida albicans; test: Antimicrobial activity against Candida albicans MTCC 227 assessed as diameter of growth inhibition zone at 250 ug/ml after 48-96 hr by agar cup diffusion method; conditions: read-out: DIZ

Work on `O=C(/C=C/c1cccc([N+](=O)[O-])c1)C1C(=O)NC(=S)NC1=O` yielded a zone of inhibition at 250 µg/mL [1] of 22 mm, a zone of inhibition at 100 µg/mL [2] of 21 mm and a zone of inhibition at 100 µg/mL [3] of 22 mm. For the same molecule, the zone of inhibition at 100 µg/mL [4] was 22 mm, the zone of inhibition at 100 µg/mL [5] was 23 mm and the zone of inhibition at 50 µg/mL [6] was 20 mm. The zone of inhibition at 50 µg/mL [7] was 21 mm, the zone of inhibition at 50 µg/mL [8] was 22 mm and the zone of inhibition at 50 µg/mL [9] was 22 mm. For the same molecule, the zone of inhibition at 25 µg/mL [10] was 18 mm, the zone of inhibition at 25 µg/mL [11] was 18 mm and the zone of inhibition at 25 µg/mL [12] was 20 mm. The zone of inhibition at 25 µg/mL [13] was 21 mm, the MFC [14] was 1000 µg/mL (≈ 3130 µM) and the MIC [14] was 1000 µg/mL (≈ 3130 µM). It also gave an MFC [15] of 1000 µg/mL (≈ 3130 µM), an MIC [15] of 1000 µg/mL (≈ 3130 µM) and a zone of inhibition at 25 µg/mL [16] of 14 mm. It also gave a zone of inhibition at 25 µg/mL [17] of 15 mm, a zone of inhibition at 25 µg/mL [18] of 14 mm and a zone of inhibition at 25 µg/mL [19] of 15 mm. It also gave an MBC [20] of 100 µg/mL (≈ 313 µM), an MIC [20] of 62.5 µg/mL (≈ 196 µM) and an MBC [21] of 100 µg/mL (≈ 313 µM). The MIC [21] was 100 µg/mL (≈ 313 µM), the MBC [22] was 200 µg/mL (≈ 626 µM) and the MIC [22] was 125 µg/mL (≈ 391 µM). The MBC [23] was 250 µg/mL (≈ 783 µM), the MIC [23] was 200 µg/mL (≈ 626 µM) and the MBC [24] was 250 µg/mL (≈ 783 µM). For the same molecule, the MIC [24] was 200 µg/mL (≈ 626 µM), the MFC [25] was 1000 µg/mL (≈ 3130 µM) and the MIC [25] was 1000 µg/mL (≈ 3130 µM). For the same molecule, the MFC [26] was 1000 µg/mL (≈ 3130 µM), the MIC [26] was 1000 µg/mL (≈ 3130 µM) and the zone of inhibition at 250 µg/mL [27] was 18 mm. For the same molecule, the zone of inhibition at 250 µg/mL [28] was 19 mm, the zone of inhibition at 250 µg/mL [29] was 18 mm and the zone of inhibition at 250 µg/mL [30] was 19 mm. It also gave a zone of inhibition at 250 µg/mL [31] of 18 mm, a zone of inhibition at 100 µg/mL [32] of 17 mm and a zone of inhibition at 100 µg/mL [33] of 17 mm. The zone of inhibition at 100 µg/mL [34] was 18 mm, the zone of inhibition at 100 µg/mL [35] was 17 mm and the zone of inhibition at 100 µg/mL [36] was 18 mm. For the same molecule, the zone of inhibition at 50 µg/mL [37] was 14 mm, the zone of inhibition at 50 µg/mL [38] was 16 mm and the zone of inhibition at 50 µg/mL [39] was 17 mm. The zone of inhibition at 50 µg/mL [40] was 16 mm, the zone of inhibition at 50 µg/mL [41] was 17 mm and the zone of inhibition at 25 µg/mL [42] was 10 mm. It also gave a zone of inhibition at 250 µg/mL [43] of 27 mm, a zone of inhibition at 250 µg/mL [44] of 24 mm and a zone of inhibition at 250 µg/mL [45] of 24 mm.
